Results taken from patent US7626031B2, “Substituted 3-(diarylmethylene)indolin-2-ones and methods of their use” (Symphony Evolution, Inc., priority 2002, dated 2009).

Legend:
[1] = biological target: T1, KDR (baculovirus expressed human KDR kinase domain D807-V1356) (Homo sapiens, UniProt P35968); experiment: biochemical
T1 construct: human KDR kinase domain D807-V1356; host or cells: baculovirus expression system
How it was run: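 Baculovirus human KDR kinase domain (D807–V1356) with ATP near its KM; 10-point dose-response, 4 h at ambient temperature. Activity taken as percent ATP remaining, detected by luciferase–luciferin chemiluminescence.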

EphA2 = EphA2 (Homo sapiens, UniProt P29317); experiment: Kinase assay, EphA2 (33P-ATP incorporation or luciferase-coupled ATP consumption); type: biochemical
How it was run: (§1)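 Radiometric format: γ-33P ATP incorporation into plate-immobilized myelin basic protein, enzyme 10 nM or 20 nM, 10 μM or 30 μM unlabeled ATP, 1 h at room temperature, 1% DMSO, scintillation counting; alternatively luciferase-measured ATP consumption with pEY substrate. ATP set near each kinase's KM; 10-point dose-response.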

Flt-1 = Flt-1 (Homo sapiens, UniProt P17948); experiment: Kinase assay, Flt-1 (33P-ATP incorporation or luciferase-coupled ATP consumption); type: biochemical; settings: read-out: Flt1 IC50
Protocol: (§2) Kinase assays were performed by measurement of incorporation of γ-^33P ATP into immobilized myelin basic protein (MBP). […] Plates were washed 3× with 100 μl TBS. […] Compound dilutions were performed in DMSO and added to assay wells to a final DMSO concentration of 1%. Each data point was measured in duplicate, and at least two duplicate assays were performed for each individual compound determination. Enzyme was added to final concentrations of 10 nM or 20 nM, for example. A mixture of unlabeled ATP and γ-^33P ATP was added to start the reaction (2×10^6 cpm of γ-^33P ATP per well (3000 Ci/mmole) and either 10 μM or 30 μM unlabeled ATP, typically. The reactions were carried out for 1 hour at room temperature with shaking. Plates were washed 7× with TBS, followed by the addition of 50 μl/well scintillation fluid (Wallac). Plates were read using a Wallac Trilux counter. This is only one format of such assays, various other formats are possible, as known to one of ordinary skill in the art.
(§3) Tyrosine kinase activity is determined by 1) measurement of kinase-dependent ATP consumption by in the presence of a generic substrate such as, polyglutamic acid, tyrosine, 4:1 (pEY), by luciferase/luciferin-mediated chemiluminescence or; 2) incorporation of radioactive phosphate derived from ^33P-ATP into a generic substrate which has been adsorbed onto the well surface of polystyrene microtiter plates. Phosphorylated substrate products are quantified by scintillation spectrometry.
(§4) Kinase activity and compound inhibition are investigated using one or more assay formats. The ATP concentrations for each assay are selected to be close to the Michaelis-Menten constant (KM) for each individual kinase. Dose-response experiments are performed at 10 different inhibitor concentrations in a 384-well plate format. […] Exemplary kinase assays are described below. KDR Assay

EGFR = EGFR (Homo sapiens, UniProt P00533); experiment: Kinase assay, EGFR (33P-ATP incorporation or luciferase-coupled ATP consumption); type: biochemical
How it was run: as §1

FGFR1 = FGFR1 (Homo sapiens, UniProt P11362); experiment: Kinase assay, FGFR1 (33P-ATP incorporation or luciferase-coupled ATP consumption); type: biochemical
Protocol: as §2, §3, §4

PDGFR alpha = PDGFR alpha (Homo sapiens, UniProt P16234); experiment: Kinase assay, PDGFR alpha (33P-ATP incorporation or luciferase-coupled ATP consumption); type: biochemical; settings: read-out: PDGF-R-A IC50
How it was run: as §1

Fyn = Fyn (Homo sapiens, UniProt P06241); experiment: Kinase assay, Fyn; type: biochemical
Protocol: as §4

IRK = IRK (Homo sapiens, UniProt P06213); experiment: Kinase assay, IRK; type: biochemical
Protocol: as §4

Chain of EphA2 (P29317 24-976, species assumed): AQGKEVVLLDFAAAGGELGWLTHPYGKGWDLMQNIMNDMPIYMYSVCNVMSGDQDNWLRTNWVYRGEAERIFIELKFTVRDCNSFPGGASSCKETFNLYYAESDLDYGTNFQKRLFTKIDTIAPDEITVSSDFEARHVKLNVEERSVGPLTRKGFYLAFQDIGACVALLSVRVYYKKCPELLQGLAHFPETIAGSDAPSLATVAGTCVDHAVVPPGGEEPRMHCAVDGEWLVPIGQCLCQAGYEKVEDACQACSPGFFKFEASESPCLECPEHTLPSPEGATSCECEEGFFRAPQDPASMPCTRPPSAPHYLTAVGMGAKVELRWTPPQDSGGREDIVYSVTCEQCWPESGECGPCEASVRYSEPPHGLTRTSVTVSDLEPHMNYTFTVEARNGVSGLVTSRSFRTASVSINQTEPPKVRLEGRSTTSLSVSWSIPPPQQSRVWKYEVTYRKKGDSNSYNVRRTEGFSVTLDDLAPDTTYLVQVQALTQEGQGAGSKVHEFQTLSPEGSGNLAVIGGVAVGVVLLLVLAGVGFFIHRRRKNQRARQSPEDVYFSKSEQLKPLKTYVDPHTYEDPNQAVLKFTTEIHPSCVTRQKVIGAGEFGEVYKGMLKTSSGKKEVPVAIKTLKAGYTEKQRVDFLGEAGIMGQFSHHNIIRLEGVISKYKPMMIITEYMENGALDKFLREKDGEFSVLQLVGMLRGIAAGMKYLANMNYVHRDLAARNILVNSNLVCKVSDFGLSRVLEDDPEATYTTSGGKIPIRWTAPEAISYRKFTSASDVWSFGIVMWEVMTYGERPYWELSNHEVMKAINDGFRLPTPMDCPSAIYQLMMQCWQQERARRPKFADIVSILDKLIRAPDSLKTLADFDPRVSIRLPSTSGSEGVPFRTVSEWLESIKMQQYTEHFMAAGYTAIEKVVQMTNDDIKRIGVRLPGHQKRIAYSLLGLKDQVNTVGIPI
Chain of Fyn (P06241 whole entry, species assumed): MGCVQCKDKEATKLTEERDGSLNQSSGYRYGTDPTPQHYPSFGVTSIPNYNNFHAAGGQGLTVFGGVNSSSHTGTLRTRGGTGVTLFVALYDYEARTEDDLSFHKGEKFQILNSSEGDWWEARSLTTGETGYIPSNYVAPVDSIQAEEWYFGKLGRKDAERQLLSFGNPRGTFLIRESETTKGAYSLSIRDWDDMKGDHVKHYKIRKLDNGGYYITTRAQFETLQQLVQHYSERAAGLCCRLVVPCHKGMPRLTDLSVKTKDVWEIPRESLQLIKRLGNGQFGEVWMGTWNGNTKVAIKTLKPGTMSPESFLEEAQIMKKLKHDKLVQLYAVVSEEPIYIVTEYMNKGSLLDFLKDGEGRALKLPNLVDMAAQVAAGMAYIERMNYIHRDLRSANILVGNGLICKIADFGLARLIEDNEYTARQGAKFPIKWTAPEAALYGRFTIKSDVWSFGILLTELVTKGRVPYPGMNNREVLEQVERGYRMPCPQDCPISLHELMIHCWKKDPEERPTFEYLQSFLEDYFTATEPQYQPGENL
Chain of IRK (P06213 28-1382): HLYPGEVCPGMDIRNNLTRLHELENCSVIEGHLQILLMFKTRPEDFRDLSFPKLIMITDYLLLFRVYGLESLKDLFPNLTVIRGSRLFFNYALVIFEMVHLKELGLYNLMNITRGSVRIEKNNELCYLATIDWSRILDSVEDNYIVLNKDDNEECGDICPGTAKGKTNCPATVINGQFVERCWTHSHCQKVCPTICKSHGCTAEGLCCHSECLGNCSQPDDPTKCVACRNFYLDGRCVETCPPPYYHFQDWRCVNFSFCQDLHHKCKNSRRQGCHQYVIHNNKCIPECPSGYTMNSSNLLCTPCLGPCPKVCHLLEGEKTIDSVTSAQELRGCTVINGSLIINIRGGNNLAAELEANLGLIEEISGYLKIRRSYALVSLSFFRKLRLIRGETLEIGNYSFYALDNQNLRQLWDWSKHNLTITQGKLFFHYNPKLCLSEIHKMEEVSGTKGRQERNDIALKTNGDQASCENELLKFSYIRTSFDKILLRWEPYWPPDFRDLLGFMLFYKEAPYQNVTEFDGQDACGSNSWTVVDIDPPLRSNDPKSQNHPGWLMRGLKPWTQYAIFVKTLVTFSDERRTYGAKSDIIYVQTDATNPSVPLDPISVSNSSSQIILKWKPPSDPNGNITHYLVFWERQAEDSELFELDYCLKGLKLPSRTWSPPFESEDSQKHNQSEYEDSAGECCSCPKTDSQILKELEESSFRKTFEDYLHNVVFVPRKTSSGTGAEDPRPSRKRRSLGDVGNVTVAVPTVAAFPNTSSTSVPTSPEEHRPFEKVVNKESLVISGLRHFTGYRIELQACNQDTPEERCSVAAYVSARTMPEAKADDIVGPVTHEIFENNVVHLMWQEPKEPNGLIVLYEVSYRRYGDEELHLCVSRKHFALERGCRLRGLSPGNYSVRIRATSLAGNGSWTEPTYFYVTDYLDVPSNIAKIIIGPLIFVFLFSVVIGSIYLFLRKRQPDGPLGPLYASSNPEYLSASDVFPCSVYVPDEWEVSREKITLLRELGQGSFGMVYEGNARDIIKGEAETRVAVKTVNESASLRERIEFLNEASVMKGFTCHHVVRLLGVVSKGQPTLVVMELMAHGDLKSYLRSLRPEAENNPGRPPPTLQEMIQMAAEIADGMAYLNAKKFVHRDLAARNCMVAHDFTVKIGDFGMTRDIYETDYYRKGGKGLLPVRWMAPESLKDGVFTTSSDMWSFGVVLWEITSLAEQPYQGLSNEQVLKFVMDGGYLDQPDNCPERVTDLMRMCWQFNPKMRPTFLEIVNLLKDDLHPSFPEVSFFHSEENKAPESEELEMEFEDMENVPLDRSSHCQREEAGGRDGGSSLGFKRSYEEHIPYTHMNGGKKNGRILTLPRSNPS
Chain of PDGFR alpha (P16234 24-1089): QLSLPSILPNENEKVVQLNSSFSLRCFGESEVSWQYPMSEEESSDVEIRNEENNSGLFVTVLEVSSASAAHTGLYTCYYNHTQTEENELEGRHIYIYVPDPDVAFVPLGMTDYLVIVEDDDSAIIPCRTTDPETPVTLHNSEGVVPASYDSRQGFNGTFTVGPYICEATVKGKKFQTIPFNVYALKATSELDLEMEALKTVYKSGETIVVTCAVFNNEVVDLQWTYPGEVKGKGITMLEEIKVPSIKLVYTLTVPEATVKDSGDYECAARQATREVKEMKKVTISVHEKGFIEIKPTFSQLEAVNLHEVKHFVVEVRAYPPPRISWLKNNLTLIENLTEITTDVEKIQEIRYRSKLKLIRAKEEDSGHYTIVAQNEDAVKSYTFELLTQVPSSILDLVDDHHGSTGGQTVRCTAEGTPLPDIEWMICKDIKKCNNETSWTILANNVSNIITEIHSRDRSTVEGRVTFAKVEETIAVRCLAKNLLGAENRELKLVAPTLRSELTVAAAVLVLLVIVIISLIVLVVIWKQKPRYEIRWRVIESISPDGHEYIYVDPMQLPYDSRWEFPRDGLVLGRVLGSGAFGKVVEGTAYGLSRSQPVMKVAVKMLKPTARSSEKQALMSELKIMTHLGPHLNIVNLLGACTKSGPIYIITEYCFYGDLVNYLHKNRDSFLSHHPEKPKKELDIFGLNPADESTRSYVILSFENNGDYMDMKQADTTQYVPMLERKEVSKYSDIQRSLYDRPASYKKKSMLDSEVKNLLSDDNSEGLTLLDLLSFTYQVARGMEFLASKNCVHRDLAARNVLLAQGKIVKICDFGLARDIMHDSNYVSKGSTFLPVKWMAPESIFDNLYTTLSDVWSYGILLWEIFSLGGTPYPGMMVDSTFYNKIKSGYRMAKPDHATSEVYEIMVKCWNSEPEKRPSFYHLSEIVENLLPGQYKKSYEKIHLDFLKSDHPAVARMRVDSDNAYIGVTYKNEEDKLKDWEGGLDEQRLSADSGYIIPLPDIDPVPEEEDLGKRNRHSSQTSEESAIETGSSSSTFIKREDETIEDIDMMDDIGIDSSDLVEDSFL
Chain of FGFR1 (P11362 22-822, species assumed): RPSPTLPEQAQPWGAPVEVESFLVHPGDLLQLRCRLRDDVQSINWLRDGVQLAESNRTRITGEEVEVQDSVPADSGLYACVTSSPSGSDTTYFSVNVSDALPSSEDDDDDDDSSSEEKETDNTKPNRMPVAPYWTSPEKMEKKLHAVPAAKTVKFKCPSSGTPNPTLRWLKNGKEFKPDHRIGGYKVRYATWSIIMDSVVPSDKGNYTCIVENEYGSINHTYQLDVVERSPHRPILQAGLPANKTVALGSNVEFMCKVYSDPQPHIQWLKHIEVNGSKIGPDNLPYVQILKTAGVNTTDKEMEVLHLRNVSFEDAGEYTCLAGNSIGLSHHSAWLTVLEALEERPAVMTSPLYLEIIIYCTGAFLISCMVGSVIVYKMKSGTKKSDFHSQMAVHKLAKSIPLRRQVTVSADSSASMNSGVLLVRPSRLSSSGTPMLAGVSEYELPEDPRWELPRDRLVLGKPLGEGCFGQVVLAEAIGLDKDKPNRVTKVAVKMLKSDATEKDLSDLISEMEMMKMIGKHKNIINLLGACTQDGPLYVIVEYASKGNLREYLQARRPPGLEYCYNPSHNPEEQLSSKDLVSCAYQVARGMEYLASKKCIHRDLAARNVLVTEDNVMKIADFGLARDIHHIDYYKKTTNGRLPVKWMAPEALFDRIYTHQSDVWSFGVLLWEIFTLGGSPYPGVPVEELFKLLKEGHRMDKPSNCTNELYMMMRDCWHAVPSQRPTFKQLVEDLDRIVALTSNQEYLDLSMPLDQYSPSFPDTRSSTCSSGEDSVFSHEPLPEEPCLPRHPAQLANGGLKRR

SMILES | IC50 [1] [nM] | IC50 (EphA2) [nM] | IC50 (Flt-1) [nM] | IC50 (EGFR) [nM] | IC50 (FGFR1) [nM] | IC50 (PDGFR alpha) [nM] | IC50 (Fyn) [nM] | IC50 (IRK) [nM]
CCN1CCC(Oc2ccc3c(c2)/C(=C(\c2cc(F)cc(F)c2)c2nc4ccccc4[nH]2)C(=O)N3)CC1 [Entry 33, (3Z)-3-[1H-benzimidazol-2-yl(3,5-difluorophenyl)methylidene]-5-[(1-ethylpiperidin-4-yl)oxy]-1,3-dihydro-2H-indol-2-one] | < 50 | 500 to 5000 | 50 to 500 | 500 to 5000 | 50 to 500 | < 50 | < 50 | 500 to 5000
COCCN1CCC(Nc2ccc3c(c2)/C(=C(\c2cccc(OC)c2)c2nc4ccccc4[nH]2)C(=O)N3)CC1 [Entry 39, (3Z)-3-{1H-benzimidazol-2-yl[3-(methyloxy)phenyl]methylidene}-5-({1-[2-(methyloxy)ethyl]piperidin-4-yl}amino)-1,3-dihydro-2H-indol-2-one] | < 50 | 500 to 5000 | 50 to 500 | 500 to 5000 | < 50 | < 50 | < 50 | 500 to 5000
CCN1CCC(N(C)c2ccc3c(c2)/C(=C(\c2cccc(Cl)c2)c2nc4ccccc4[nH]2)C(=O)N3)CC1 [Entry 43] | < 50 | 500 to 5000 | 500 to 5000 | 500 to 5000 | 50 to 500 | 50 to 500 | 50 to 500 | 500 to 5000
CCN1CCC(Oc2ccc3c(c2)/C(=C(\c2cccc(OC)c2)c2nc4ccccc4[nH]2)C(=O)N3)CC1 [Entry 32, (3Z)-3-{1H-benzimidazol-2-yl[3-(methyloxy)phenyl]methylidene}-5-[(1-ethylpiperidin-4-yl)oxy]-1,3-dihydro-2H-indol-2-one] | < 50 | 500 to 5000 | 50 to 500 | 500 to 5000 | – | < 50 | < 50 | 500 to 5000
CCN1CCC(Nc2ccc3c(c2)/C(=C(\c2ccc(F)cc2)c2nc4ccccc4[nH]2)C(=O)N3)CC1 [Entry 16, (3Z)-3-[1H-benzimidazol-2-yl(4-fluorophenyl)methylidene]-5[(1-ethylpiperidin-4-yl)amino]-1,3-dihydro-2H-indol-2-one] | < 50 | 500 to 5000 | 50 to 500 | 500 to 5000 | – | < 50 | 50 to 500 | 500 to 5000
COc1ccc2[nH]c(/C(=C3\C(=O)Nc4ccc(NC5CCN(Cc6ccccc6)C5)cc43)c3ccccc3)nc2c1 (stereo not shown) [Entry 1, (3Z)-3-[[5-(methyloxy)-1H-benzimidazol-2-yl](phenyl)methylidene[-5-}[1-(phenylmethyl)pyrrolidin-3-yl]amino}-1,3-dihydro-2H-indol-2-one] | < 50 | 500 to 5000 | 50 to 500 | 500 to 5000 | – | 50 to 500 | 50 to 500 | > 5000
COc1ccc2[nH]c(/C(=C3\C(=O)Nc4ccc(NC5CC(C)(C)NC(C)(C)C5)cc43)c3ccccc3)nc2c1 [Entry 10, (3Z)-3-[[5-(methyloxy)-1H-benzimidazol-2-yl](phenyl)methylidene]-5-[(2,2,6,6-tetramethylpiperidin-4-yl)amino]-1,3-dihydro-2H-indol-2-one] | 500 to 5000 | 500 to 5000 | 500 to 5000 | 500 to 5000 | – | 50 to 500 | 500 to 5000 | 500 to 5000

Further lines, results first:

IC50 [1] [nM] | IC50 (EphA2) [nM] | IC50 (Flt-1) [nM] | IC50 (EGFR) [nM] | IC50 (FGFR1) [nM] | IC50 (PDGFR alpha) [nM] | IC50 (Fyn) [nM] | IC50 (IRK) [nM] | SMILES
< 50 | 500 to 5000 | 500 to 5000 | 50 to 500 | 50 to 500 | < 50 | < 50 | 500 to 5000 | COCCN1CCC(Oc2ccc3c(c2)/C(=C(\c2cccc(Cl)c2)c2nc4ccccc4[nH]2)C(=O)N3)CC1 [Entry 37, (3Z)-3-[1H-benzimidazol-2-yl(3-chlorophenyl)methylidene]-5-({1-[2-(methyloxy)ethyl]piperidin-4-yl)oxy)-1,3-dihydro-2H-indol-2-one]
< 50 | 500 to 5000 | 50 to 500 | 500 to 5000 | < 50 | < 50 | < 50 | 500 to 5000 | CCN1CCC(Oc2ccc3c(c2)/C(=C(\c2cccc(Cl)c2)c2nc4ccccc4[nH]2)C(=O)N3)CC1 [Entry 35, (3Z)-3-[1H-benzimidazol-2-yl(3-chlorophenyl)methylidene]-5-[(1-ethylpiperidin-4-yl)oxy]-1,3-dihydro-2H-indol-2-one]
< 50 | 50 to 500 | < 50 | 50 to 500 | < 50 | < 50 | < 50 | 50 to 500 | CCN1CCC(Nc2ccc3c(c2)/C(=C(\c2cccc(Cl)c2)c2nc4ccccc4[nH]2)C(=O)N3)CC1 [Entry 27, (3Z)-3-[1H-benzimidazol-2-yl(3-chlorophenyl)methylidene]-5-[(1-ethylpiperidin-4-yl)amino]-1,3-dihydro-2H-indol-2-one]
< 50 | > 5000 | 50 to 500 | 500 to 5000 | – | < 50 | < 50 | 500 to 5000 | CCN1CCC(Nc2ccc3c(c2)/C(=C(\c2ccc(OC)cc2)c2nc4cc(OC)ccc4[nH]2)C(=O)N3)CC1 [Entry 5, (3Z)-5-[(1-ethylpiperidin-4-yl)amino]-3-{[5-(methyloxy)-1H-benzimidazol-2-yl][4-(methyloxy)phenyl]methylidene}-1,3-dihydro-2H-indol-2-one]
< 50 | 500 to 5000 | 500 to 5000 | 500 to 5000 | – | 50 to 500 | 50 to 500 | 500 to 5000 | CCN1CCC(Nc2ccc3c(c2)/C(=C(\c2cccc(C#N)c2)c2nc4ccccc4[nH]2)C(=O)N3)CC1 [Entry 20, 3-((Z)-1H-benzimidazol-2-yl{5-[(1-ethylpiperidin-4-yl)amino]-2-oxo-1,2-dihydro-3H-indol-3-ylidene)methyl) benzonitrile]
< 50 | 500 to 5000 | 50 to 500 | 500 to 5000 | – | < 50 | < 50 | 500 to 5000 | CCN1CCC(Nc2ccc3c(c2)/C(=C(\c2ccc(C)cc2)c2nc4cc(OC)ccc4[nH]2)C(=O)N3)CC1 [Entry 6, (3Z)-5-[(1-ethylpiperidin-4-yl)amino]-3-[[5-(methyloxy)-1 H-benzimidazol-2-yl](4-methylphenyl)methylidene]-1,3-dihydro-2H-indol-2-one]
50 to 500 | 500 to 5000 | 500 to 5000 | 500 to 5000 | – | 500 to 5000 | 500 to 5000 | 500 to 5000 | CS(=O)(=O)N1CCC(Nc2ccc3c(c2)/C(=C(\c2ccccc2)c2nc4ccccc4[nH]2)C(=O)N3)CC1 [Entry 30, (3Z)-3-[1H-benzimidazol-2-yl(phenyl)methylidene]-5-{[1-(methylsulfonyl)piperidin-4-yl]amino}-1,3-dihydro-2H-indol-2-one]
500 to 5000 | 500 to 5000 | 500 to 5000 | 500 to 5000 | – | 500 to 5000 | 500 to 5000 | 500 to 5000 | CCN1CCC(Nc2ccc3c(c2)/C(=C(\c2cccc(C(=N)N)c2)c2nc4ccccc4[nH]2)C(=O)N3)CC1 [Entry 23, 3-((Z)-1H-benzimidazol-2-yl{5-[(1-ethylpiperidin-4-yl)amino]-2-oxo-1,2-dihydro-3H-indol-3-ylidene}methyl) benzenecarboximidamide]
50 to 500 | 500 to 5000 | 500 to 5000 | 500 to 5000 | – | 50 to 500 | 500 to 5000 | 500 to 5000 | CC1(C)CC(Nc2ccc3c(c2)/C(=C(\c2ccccc2)c2nc4ccccc4[nH]2)C(=O)N3)CC(C)(C)N1 [Entry 25, (3Z)-3-[1H-benzimidazol-2-yl(phenyl)methylidene]-5-[(2,2,6,6-tetramethylpiperidin-4-yl)amino]-1,3-dihydro-2H-indol-2-one]
